Each structure is given as a SMILES string.

`CC(C)(C)OC(=O)COc1cc(NC(=O)OC(C)(C)C)c(NC(=O)CC(=O)c2cccc(-n3ccnc3)c2)cc1-c1ccc(F)cc1` yielded a melting point of 82 to 85 °C.

`CCOC(=O)N1C(=NC#N)NC(C)=C(C(=O)OC)C1c1cccc(Cl)c1Cl` (centres undefined) displayed a melting point of 176 to 178 °C.

As to `CCCc1ccnc2c(=O)[nH]c(-c3cc(S(=O)(=O)N4CCC(C(=O)OCC)CC4)ccc3OCC)nc12`, the melting point is 204 to 205 °C.

As to `NC(=O)c1cn(CCO)nc1[N+](=O)[O-]`, the melting point lay within 148 to 150 °C.

In turn, `COc1ccccc1P1(=O)c2ccccc2CN1c1ccccc1` (centres undefined) had a melting point of 189 to 191 °C.

In turn, `CC[C@H](C)CNC(=O)C[C@H](O)[C@H](CC(C)C)C(=O)OC(C)(C)C` returned a melting point of 83 to 84 °C.

On to `O=C(NO)c1ccc2c(c1)CCN(C(=O)C1CC1)C2`, for which the melting point is 90 °C.

Take `CCNC(=O)NC[C@H]1CN(c2ccc3c(c2)CCCc2cnoc2-3)C(=O)O1`: the melting point was 193 to 196 °C.

With `Cc1cc(=O)c2cc(Oc3ccccc3)c(NS(C)(=O)=O)cc2o1`, the melting point fell in the range of 186 to 187 °C.

For the compound `Clc1ncc(C(c2ccccc2)c2ccccc2)cc1C(c1ccccc1)c1ccccc1`, the melting point lay in the range of 131 to 133 °C.

Regarding `CCCc1c(OCCCCc2ccc3cc(O)c(O)cc3c2)ccc(C(=O)O)c1O`, the melting point is 173 to 175 °C.

`CN1CCN(C2=Nc3cc(F)ccc3Nc3ccsc32)CC1` came in with a melting point of 206 to 208 °C.

`O=c1[nH]c2ccccc2c(=O)n1C1CCCCC1` had a melting point of 236 to 238 °C.

For `COc1ccc(-c2csc(Nc3ncccn3)n2)cc1OC`, the melting point was in the range of 225 to 228 °C.

In turn, `CC(C)CC(NC(=O)Cc1ccc(NC(=O)Nc2ccccc2Cl)cc1)c1cc(CCC(=O)O)on1` (centres undefined) came in with a melting point of 143 to 145 °C.

Compound `CCc1c(-c2nnc(C)s2)cc2oc(=O)c(C)c(C)c2c1OC` registered a melting point of 201 to 203 °C.

Compound `Cc1cc2c(cc1Sc1ccc(C(=O)O)c(O)c1)C(C)(C)CCC2(C)C` had a melting point of 74 to 75 °C.

For `CN(C)C1CCCN(C(=O)c2ccc([N+](=O)[O-])cc2)c2ccccc21` (centres undefined), the melting point is 139 to 142 °C.

Take `CC(=NO)c1ccc2c(c1O)OC(CO)CO2` (centres undefined): the melting point is 162 °C.

`O=C(O)c1ccccc1CF` displayed a melting point of 178 to 181 °C.

As for `O=C(O)c1cnn(OCCCC2OCCO2)c1`, the melting point came to 85 °C.

Compound `Nc1c(NCCSCc2csc(CN3CCCCC3)c2)c(=O)c1=O` displayed a melting point of 236 to 238 °C.

`COc1cc2ncnc(N3CCN(C(=O)Nc4ccc(S(C)(=O)=O)cc4)CC3)c2cc1OC` returned a melting point of 266 to 269 °C.

The compound `N#Cc1cccn2cc(-c3ccc(C(=O)NCCC(=O)O)cc3)nc12` registered a melting point of 212 to 215 °C.

`COc1cc(S(C)(=O)=O)c(C)cc1OCC(=O)NCC(O)COc1ccccc1C` (centres undefined): the melting point lay in the range of 75 to 79 °C.

Compound `CCCc1ccc(NC(=O)c2cccnc2NCc2ccc(=O)[nH]c2)cc1C(F)(F)F` displayed a melting point of 220 to 224 °C.

For the compound `CS(=O)(=O)c1ccc(-c2cnn(-c3ccc(S(N)(=O)=O)cc3)c(=O)c2-c2ccc(F)cc2)cc1`, the melting point fell in the range of 213 to 216 °C.

With `COC(=O)C1=CCC(NC(C)=O)C1` (centres undefined), the melting point lay in the range of 72 to 74 °C.

In the case of `N#CCCc1cccc2c1N(Cc1cccc(/C=C/c3ccc4ccccc4n3)c1)CC2`, the melting point fell in the range of 126 to 129 °C.

In turn, `Cc1ccc(NC(=O)C(C)(C)C)c(-c2cncc(Cl)n2)c1` returned a melting point of 80 to 83 °C.

On to `COc1ccc(-n2ccc3ccccc32)cc1`, for which the melting point was 52 to 54 °C.

In the case of `CCC12CCC3C4CCC(=O)C=C4CCC3C1CCC2OC(=O)c1ccccc1` (centres undefined), the melting point lay within 141 to 149 °C.

Regarding `NC(=O)c1sc2nccc(N3CCCC(c4ccccc4)C3)c2c1N` (centres undefined), the melting point lay in the range of 267 to 269 °C.

The compound `CNC(=O)Cc1c(C(=O)c2cc(C)ccn2)[nH]c2cc(Cl)ccc12` registered a melting point of 231 °C.

Compound `CC1(CCS)CN2CCCC(C(=O)O)N2C1=O` (centres undefined) showed a melting point of 119 to 122 °C.

For `Cc1cc(Br)cnc1CCCCNC1=NS(=O)(=O)c2ccc(Cl)cc21`, the melting point was in the range of 231 to 235 °C.

Consider `CC(C)C(NS(=O)(=O)c1ccccc1)C(=O)NOCc1ccccc1` (centres undefined), for which the melting point lay within 163 to 165 °C.

Compound `COc1ccc(NC(=O)N2C(=O)CC(c3ccc(OC)c(OC4CCCC4)c3)N2C)cc1` (centres undefined) returned a melting point of 123 to 125 °C.

Take `O=[N+]([O-])c1ccccc1S`: the melting point was in the range of 40 to 42 °C.

For `Cc1cn(-c2cc(NC(=O)n3ccc4cc(Oc5cc(CC(N)=O)ncn5)ccc43)cc(C(F)(F)F)c2)cn1`, the melting point fell in the range of 223 to 229 °C.

The compound `Nc1cc(I)cnc1N` yielded a melting point of 109 to 111 °C.

For `CCOC(=O)c1nc(OC)cc(OC)n1`, the melting point fell in the range of 54 to 55 °C.

`CCN(c1cccc(C(=O)Nc2cc(NC(=O)c3cccc(N4CCOCC4)c3)ccc2C)c1)S(C)(=O)=O` showed a melting point of 192 to 193 °C.

For `COc1cccc(CNC(=O)c2nc3cccc(O)c3c(=O)[nH]2)c1`, the melting point was in the range of 187 to 189 °C.

For the compound `CC(C)N1CCN(CCN2CCC(c3cn(-c4ccc(F)cc4)c4cc(Cl)ccc34)CC2)C1=O`, the melting point came to 134 °C.

`CCOC(=O)Cc1nnnn1C` yielded a melting point of 64 to 66 °C.

Compound `N#CC=C1c2ccccc2C=Cc2ccccc21` returned a melting point of 137 to 138 °C.

For `COc1ccc2c(c1)CCC(NC(C)=O)(C(=O)O)C2` (centres undefined), the melting point was 252 to 254 °C.

For `CC(Oc1ncn(-c2ccc(Cl)c(Cl)c2)n1)C(=O)O` (centres undefined), the melting point lay within 222 to 224 °C.

On to `O=C(O)C1CC(c2ccccc2)=NN1` (centres undefined), for which the melting point lay within 180 to 182 °C.

The compound `COc1cc2nc(N)nc(-c3cccc(CO)c3)c2cc1OC` registered a melting point of 230 to 232 °C.

For the compound `COc1ccc(C2=C(CC(C)N(C)C(C)C)C(=O)NCCC2)cc1` (centres undefined), the melting point was 86 to 88 °C.

For `CC(=O)c1ccc(-c2ccc(F)cc2F)c(F)c1`, the melting point lay within 92 to 94 °C.

For the compound `COC(=O)CSCC(=O)c1ccc2[nH]c(=O)[nH]c2c1`, the melting point lay in the range of 177 to 178 °C.

For the compound `ClC1Cc2cc(Br)ccc2Sc2ccccc21` (centres undefined), the melting point was in the range of 122 to 124 °C.

Compound `CN(Cc1ccc(Cl)cc1)S(=O)(=O)c1cn(S(=O)(=O)N(C)C)c(C#N)n1` showed a melting point of 162 to 163 °C.

As for `CC1(C)CC(=O)N(c2ccc(OC(=O)N3CCc4ccccc4C3)nc2)C(=O)C1`, the melting point lay within 156 to 158 °C.

As for `CC(=O)NC1(c2ccccc2)CCN(CC[C@@H](c2ccc(Cl)c(Cl)c2)[C@@H](O)c2cnnn2-c2ccccc2)CC1` (racemic), the melting point lay within 125 to 128 °C.

For `CN(C)C1CCN(c2nc(N3CCOCC3)c3ncnc(N(CCC#N)Cc4ccccc4)c3n2)CC1`, the melting point is 45 to 47 °C.

`N#CC1=C(c2ccsc2)Nc2n[nH]cc2C1c1cccc2nonc12` (centres undefined) showed a melting point of 242 °C.

Consider `CC(C)=NOCc1nc2c(N)nc3ccccc3c2n1CCCNS(C)(=O)=O`, for which the melting point is 178 to 179 °C.

Compound `O=C(Nc1cccc(F)c1)NN1CC=CCC1` returned a melting point of 136 to 138 °C.

Consider `COc1ccc(S(=O)(=O)C2(Cc3ccccc3)SC(=O)N(CC(=O)NO)C2=O)cc1` (centres undefined), for which the melting point fell in the range of 81 to 85 °C.

As for `CCOC(=O)c1ccc(NC)c(C(O)c2ccccc2)c1` (centres undefined), the melting point fell in the range of 132 to 135 °C.

`CC(C)c1ccc(C2c3cc(N(C)C(=O)CC(C)(C)C)ccc3OC2(C)C)cc1` (centres undefined) showed a melting point of 78 to 79 °C.

In turn, `Nc1cc(Br)nc(Br)c1` came in with a melting point of 184 to 186 °C.

For the compound `CCc1nc2c(N)nc3cccnc3c2n1CC1(O)CCN(C(=O)N2CCOCC2)CC1`, the melting point was > 255 °C.

As for `COc1cccc([C@H]2O[C@H](CC(=O)Nc3cccc(CCCC(=O)O)c3)C(=O)N(CC(C)(C)CO)c3ccc(Cl)cc32)c1OC`, the melting point lay in the range of 119 to 122 °C.

The compound `O=C(O)CCC(O)c1ccc(-c2ccc(F)cc2Cl)cc1` (centres undefined) gave a melting point of 78 to 79 °C.

`O=C1CSC(=S)N1c1ccc(Cl)c(Cl)c1` returned a melting point of 176 to 178 °C.

In turn, `CCCCc1ncc(/C=C(/C(=O)O)c2ccccc2)n1Cc1ccccc1Cl` returned a melting point of 210 to 212 °C.

In turn, `O=C(N[C@H]1CC[C@H](CCN2CCC(c3ccc(F)c4occc34)CC2)CC1)C1CCOCC1` showed a melting point of 208 °C.

Regarding `CC(=O)Oc1ccc(-c2nc3c(N)nc(N)nc3nc2N)cc1`, the melting point lay in the range of 319 to 321 °C.

The compound `C=Cn1cc(C(=O)OCC)c(=O)c2cc(F)c(N3CCC(NC(=O)C(F)(F)F)C3)nc21` (centres undefined) registered a melting point of 280 to 282 °C.

On to `CCC=CCn1c(=O)sc2c(=O)[nH]c(N)nc21`, for which the melting point fell in the range of 240 to 243 °C.

Regarding `COc1cc2ccccc2c(Br)c1O`, the melting point was 100 to 101 °C.

In turn, `CC(C)(C)OC(=O)n1c(-c2ccc3c(c2)C(C)(C)OC(=O)N3)ccc1[N+](=O)[O-]` displayed a melting point of 125 °C.

For the compound `CCC(C)(Cc1c[nH]c2ccc(F)cc12)[N+](=O)[O-]` (centres undefined), the melting point lay within 71 to 72 °C.

For the compound `CC(C)c1nccn1S(=O)(=O)c1c[nH]cn1`, the melting point was in the range of 118 to 120 °C.

`CC(C)Oc1cc(Oc2ccc(C(F)(F)F)cn2)ccc1CCCOc1cc(CCC(=O)O)n(-c2ccccc2)n1` returned a melting point of 130 °C.

Compound `N#Cc1cc(NC(=O)c2cc3ccccc3s2)ccc1N1CCCCC1` returned a melting point of 219 to 245 °C.

The compound `CC(=O)NC1C(Oc2ncn(Cc3ccc([N+](=O)[O-])cc3)c2C(N)=O)OC(COC(C)=O)C(OC(C)=O)C1OC(C)=O` (centres undefined) registered a melting point of 114 to 117 °C.

The compound `CC1=C2CCC3C(CCC4(C)C3CCC4(C)O)C2(C)CCC1=O` (centres undefined) displayed a melting point of 141 to 144 °C.

As to `CC12CCCc3cc(C(=O)O)cc(c31)CCC2`, the melting point was in the range of 213 to 215 °C.

`CNc1c([N+](=O)[O-])cnc2ccccc12` showed a melting point of 168 to 170 °C.

For `COC(=O)c1cccc(N)c1N`, the melting point was 62 to 63 °C.

Take `CCCC(=O)OCCOc1ccc2oc3cc(-c4nnn[nH]4)ccc3c(=O)c2c1`: the melting point was 207 to 209 °C.

Consider `CCCCCCN(CCCCCC)c1ccc(C=CC2=C(C#N)C(=C(C#N)C#N)OC2(C)C)s1`, for which the melting point was 172 °C.

In turn, `CC(C)(C)OC(=O)N(Cc1ccccc1)C1CN(C(c2ccccc2)c2ccccc2)C1` yielded a melting point of 117 to 118 °C.

For the origin of these results see a melting point compilation (Tetko et al.; mined from patent text by program, amines drawn as free bases though some values may be those of a salt).
